Experimental findings from patent publication US8304422B2, “Compositions and methods for inhibition of the JAK pathway” (Rigel Pharmaceuticals, Inc., priority 2007, dated 2012) are described below.

This assay deals with BaF3 V617F cells; UKE-1. Put plainly: Proliferation Assay (Cell Titer-Glo; Example 7). The assay is classed as cell-based. Conditions: proliferation 72 hours, inhibit JAK2 activity, cell line (BaF3 V617F or UKE-1) not stated. Put shortly: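 BaF3 V617F cells (RPMI, 10% FBS) and UKE-1 cells (Iscove's DMEM, 10% FBS, 10% equine serum, 1 uM hydrocortisone) were exposed to 3-fold serially diluted compound in duplicate for 72 hours at 37 °C. Viable cell number quantified by Cell Titer-Glo luminescence; IC50 reported.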
`COc1cc(Nc2ncc(C)c(Nc3ccc(CNS(=O)(=O)C4CC4)cc3)n2)cc(C)c1OC` [II-197, 5-Methyl-N4-[4-(N-cyclopropylsulfonylamino)methylphenyl]-N2-[3,4-dimethoxy-5-methylphenyl]-2,4-pyrimidinediamine] came in with an IC50 of 92 nM.
Take `CCNS(=O)(=O)NCc1cccc(Nc2nc(Nc3cc(C)c(OC)c(C)c3)ncc2Cl)c1` [II-129, 5-Chloro-N2-(3,5-dimethyl-4-methoxyphenyl)-N4-[(3-(ethylamino)sulfonylamino)methylphenyl]-2,4-pyrimidinediamine]: the IC50 came out at 127 nM.
For `CN1CCN(c2ccc(Nc3ncc(Cl)c(Nc4ccc(CCNS(=O)(=O)C5CC5)cc4)n3)cc2)CC1` [II-51, 5-Chloro-N4[4-(N-cyclopropylsulfonylamino)ethylphenyl]-N2-[4-(4-methylpiperazino)phenyl]-2,4-pyrimidinediamine], the IC50 is 1070 nM.
The molecule “5-Chloro-N4-[4-(N-cyclopropyl-N-propionylsulfonylamino)methylphenyl]-N2-[3,5-dimethyl-4-methoxyphenyl]-2,4-pyrimidinediamine [II-218]” yielded an IC50 of 248 nM. Against the preceding molecule, the IC50 is about 4.3-fold lower.
`CCNS(=O)(=O)NCc1ccc(Nc2nc(Nc3cc(C)c(OCC)c(C)c3)ncc2Cl)c(C)c1` [II-143, 5-Chloro-N2-(3,5-dimethyl-4-ethoxyphenyl)-N4-[2-methyl-4-(ethylaminosulfonylamino)methylphenyl]-2,4-pyrimidinediamine] showed an IC50 of 252 nM. This IC50 and that of the molecule before are within 1.5-fold of each other.
In the case of `COc1cc(Nc2ncc(Cl)c(Nc3ccc(CNS(=O)(=O)C4CC4)cc3)n2)cc(Cl)c1OC` [II-200, 5-Chloro-N4-[4-(N-cyclopropylsulfonylamino)methylphenyl]-N2-[3,4-dimethoxy-5-chlorophenyl]-2,4-pyrimidinediamine], the IC50 turned out to be 276 nM.
As for “5-Chloro-N2-[3-methyl-4-(methyl-1-piperazinyl)phenyl]-N4-[1,2,3,4-tetrahydro-2-(ethylsulfonyl)-5-isoquinolinyl]-2,4-pyrimidinediamine [VI-2]”, the figure is 2800 nM.
As for `CN1CCC(c2ccc(Nc3ncc(Cl)c(Nc4ccc(CNS(=O)(=O)N(C)C)cc4)n3)cc2)CC1` [II-98, 5-Chloro-N4-[(4-(dimethylamino)sulfonylamino)methylphenyl]-N2-[4-(1-methyl-4-piperidinyl)pheny]-2,4-pyrimidinediamine], the figure is 264 nM; as for `CCCOc1c(C)cc(Nc2ncc(C)c(Nc3ccc(CNS(=O)(=O)NC4CC4)cc3)n2)cc1C` [II-165, N4-[4-((N-Cyclopropylamino)sulfonylamino)methylphenyl]-N2-(3,5-dimethyl-4-propoxyphenyl)-5-Methyl-2,4-pyrimidinediamine], 323 nM.
As for `Cc1cnc(Nc2ccc(N3CCN(C)CC3)nc2)nc1Nc1ccc(CNS(=O)(=O)NC2CC2)cc1` [II-173, N4-[4-((N-Cyclopropylamino)sulfonylamino)methylphenyl]-5-methyl-N2-[6-(4-methyl-1-piperazinyl)-3-pyridinyl]-2,4-pyrimidinediamine], the figure is 2340 nM; as for `Cc1nc2cc(Nc3ncc(Cl)c(Nc4cccc(CNS(=O)(=O)C5CC5)c4)n3)ccc2[nH]1` [III-7, 5-Chloro-N4-[3-(N-cyclopropylsulfonylaminomethyl)phenyl]-N2-[2-methylbenzamidazol-5-yl]-2,4-pyrimidinediamine], 644 nM; as for `Cc1cnc(Nc2ccc(N3CCN(S(C)(=O)=O)CC3)cc2)nc1Nc1ccc(CNS(=O)(=O)C2CC2)cc1` [II-206], 1560 nM.
Turning to `Cc1cnc(Nc2ccc(C3CCN(C)CC3)cc2)nc1Nc1ccc2c(c1)C(NS(=O)(=O)C1CC1)CC2` (racemic) [V-5, (+/−)-N4-[1-(Cyclopropylsulfonylamino)indan-6-yl]-5-methyl-N2-[4-(1-methyl-4-piperidinyl)pheny]-2,4-pyrimidinediamine], the IC50 was 999 nM.

Usually IC50 stands for the midpoint of a concentration-inhibition curve.
